{"source": "patent US6407058B1", "about": "“Modifying the permeability of physiological barriers” (Eisai Co., Limited, priority 1996, dated 2002)", "type_in_all_cases": "cell-based", "key": {"p100/p120 [1]": {"test_system": "p100/p120", "test": "[32P]orthophosphate labelling and immunoprecipitation of p100/p120, MDCK I cells", "experimental": "PDB induces dephosphorylation of p100 and p120. We investigated the possibility that the altered pattern of migration during electrophoresis of p100 and p120 following treatment with PDB is due to a change in the phosphorylation state of these proteins. MDCK I cells were metabolically labelled with [^32P]orthophosphate, treated with or without 200 nM PDB, and the p100 and p120 isolated by immunoprecipitation with antibodies recognising p100 and p120. This immunoprecipitation was carried out under buffer conditions which removed any associated proteins from p100 and p120. Protein was separated by electrophoresis, transferred to nitrocellulose filters, and exposed to film (Example 6A). The greater the amount of radioactive phosphate incorporated into the protein, the greater the signal on the film. […] To normalise for slight differences in protein loading, the same filters were then probed with p100/p120 antibody, and the level of p100/p120 protein determined by densitometry. Thus, the amount of phosphate per unit protein could be calculated. […]\nMDCK I cells grown to confluence on 24 mm filters were incubated overnight in phosphate-free MEM, containing 0.5% serum (dialysed against 0.9% NaCl and 10 mM Hepes (pH 7.5)) and 100 μCi/ml [^32P]orthophosphate (Amersham). […] Filters were then probed with p120 antibodies, and the resulting ECL exposure scanned in the same way, to quantify protein loading."}, "p100/p120 [2]": {"test_system": "p100/p120", "test": "immunofluorescence localisation of p100/p120, MDCK I cells", "details": "PDB-treated vs control", "text": "It has been shown that although some of the p100/p120 in cells is associated with adherens junctions, there is also a large pool that is not complexed with cadherins (at least by immunoprecipitation analysis). […] This procedure served to isolate only that portion of the cellular p100/p120 that associates with the cadherins. Following electrophoresis, and transfer to nitrocellulose, the p100 and p120 present in E-cadherin immunoprecipitates were detected by immunoblotting (Example 9A). […] In both cases, p100/p120 is shown to be present at regions of cell—cell contact.\nCells were fixed at room temperature for 20 minutes in 3% paraformaldehyde made up in PBS containing 0.5 mM CaCl2 and 0.5 mM MgSO4. Fixed cells were washed and then permeabilized by incubation with 0.5% Triton X-100 in PBS for 10 minutes. After washing, the cells were incubated for 30 minutes in PBS containing 10% calf serum and 0.1 M lysine, pH 7.4. Incubation with p120 antibody (0.5 μg/ml) was in PBS containing 10% calf serum for 1 hour. After washing, the cells were then incubated for 60 minutes with a 1:100 dilution of FITC-conjugated anti-mouse IgG (Jackson Immunoresearch Labs), in PBS containing 10% calf serum. After washing, the filters were mounted with Citifluor (Citifluor Products, Canterbury, UK) and examined using a Nikon Microphot-FXA fluorescence microscope fitted with 40× and 60× objectives. […]"}, "p100/p120 [3]": {"test_system": "p100/p120", "test": "phosphoamino acid (PAA) analysis of p100/p120, MDCK I cells", "details": "PDB treatment", "experimental": "Following phosphate labelling, immunoprecipitation and visualisation of p100/p120 as in panel A above, the levels of p100/p120 protein were determined by immunoblotting. Thus it could be ascertained that approximately equal amounts of protein from PDB-treated and untreated cells were used for the PAA analysis. The p100/p120 bands were excised, and the proteins hydrolysed into their constituent amino acids by boiling in 5.7 M HCl. PAAs were then separated by two-dimensional electrophoresis, and detected by autoradiography. p100/p120 from control cells contains mainly phosphoserine (S), some phosphothreonine (T) and no detectable phosphotyrosine (Y). Following PDB treatment, both phosphoserine and phosphothreonine levels are reduced.\nFor phosphoamino acid (PAA) analysis, MDCK I cells were labelled as above with [^32P]orthophosphate, and the p100 and p120 extracted from PDB-treated or untreated cells by immunoprecipitation (as above). Following transfer to Immobilon P, and immunoblotting to assess recovery of protein, the area of the filter containing p100 and p120 was excised. The proteins were hydrolysed at 110° C. for one hour in 5.7 M HCl to release PAAs. Following lyophilisation, two dimensional PAA separation and detection was carried out as previously described (Boyle et al., 1991)."}}}
{"smiles": "CCCC(=O)O[C@@H]1[C@@H](C)[C@@]2(O)[C@@H](C=C(CO)C[C@]3(O)C(=O)C(C)=C[C@@H]23)[C@@H]2C(C)(C)[C@]12OC(=O)CCC", "note": "[PDB, Phorbol-12,13-dibutyrate]", "values": [{"measurement": "phosphate content of p100/p120, of that in untreated cells (mean±s.d.)", "setting": "p100/p120 [1]; 200 nM PDB 30 minutes, seven independent sets of experiments", "value": "58±11", "unit": "%"}, {"measurement": "phosphate in p100/p120 lost", "setting": "p100/p120 [1]; 200 nM PDB, single experiment (FIG. 7B), normalised for protein", "value": "approximately 40%"}, {"measurement": "localisation of p100 and p120", "setting": "p100/p120 [2]", "value": "no change in the localisation"}, {"measurement": "phosphoserine and phosphothreonine levels of p100/p120", "setting": "p100/p120 [3]", "value": "reduced"}, {"measurement": "reduction in phosphate signal (PAA densitometry)", "setting": "p100/p120 [3]", "value": "approximately 40%"}]}
